Experimental data published in patent publication US4528287A, “6-Fluoro-1, 4-dihydro-4-oxo-7-substituted piperazinylquinoline-3-carboxylic acids and the method for preparing the same” (priority 1983, dated 1985).
Values after ≈ are worked out from the molar mass of the structure shown. Read-outs that look alike come from different tables or passages of the source.

Assays:
[1] = system: Bacillus subtilis ATCC6633; assay: MIC, twofold agar dilution; format: cell-based; settings: Gram +, 10^6 cells/ml, 18 hrs, 37° C., read-out: Minimum inhibitory concentration (MIC)
Method: (§1) Minimum inhibitory concentrations (MIC) were determined by the twofold agar dilution method (Chemotherapy, 29(1), 76(1981)). Overnight cultures in Mueller-Hinton broth were suspended by buffered saline gelatine. One loopful of the bacterial suspension (10^6 or 10^8 colony-forming units/ml) was incubated onto the test compound-containing plates. The plates were incubated for 18 hrs. at 37° C. The MIC was the lowest concentration of the drug that inhibited visible growth.

[2] = system: Enterobacter aerogenes ATCC13048; assay: MIC, twofold agar dilution; format: cell-based; settings: Klebsiella aerogenes, Gram -, 10^6 cells/ml, 18 hrs, 37° C., read-out: Minimum inhibitory concentration (MIC)
Method: as §1

[3] = system: Enterobacter cloaceas 963; assay: MIC, twofold agar dilution; format: cell-based; settings: Gram -, 10^6 cells/ml, 18 hrs, 37° C., read-out: Minimum inhibitory concentration (MIC)
Method: as §1

[4] = system: Escherichia coli K-12 C600; assay: MIC, twofold agar dilution; format: cell-based; settings: K12C600, Gram -, 10^6 cells/ml, 18 hrs, 37° C., read-out: Minimum inhibitory concentration (MIC)
Method: as §1

[5] = system: Escherichia coli NIHJ-JC-2; assay: MIC, twofold agar dilution; format: cell-based; settings: NIHJJC2, Gram -, 10^6 cells/ml, 18 hrs, 37° C., read-out: Minimum inhibitory concentration (MIC)
Method: as §1

[6] = system: Klebsiella pneumoniae PCI-602; assay: MIC, twofold agar dilution; format: cell-based; settings: read-out: Minimum inhibitory concentration (MIC)
Method: as §1

[7] = system: Micrococcus luteus ATCC9341; assay: MIC, twofold agar dilution; format: cell-based; settings: Gram +, 10^6 cells/ml, 18 hrs, 37° C., read-out: Minimum inhibitory concentration (MIC)
Method: as §1

[8] = system: Proteus mirabilis IFO3849; assay: MIC, twofold agar dilution; format: cell-based; settings: Gram -, 10^6 cells/ml, 18 hrs, 37° C., read-out: Minimum inhibitory concentration (MIC)
Method: as §1

[9] = system: Proteus morganii IFO3848; assay: MIC, twofold agar dilution; format: cell-based; settings: Morganella morganii, Gram -, 10^6 cells/ml, 18 hrs, 37° C., read-out: Minimum inhibitory concentration (MIC)
Method: as §1

[10] = system: Proteus rettgeri IFO3850; assay: MIC, twofold agar dilution; format: cell-based; settings: Providencia rettgeri, Gram -, 10^6 cells/ml, 18 hrs, 37° C., read-out: Minimum inhibitory concentration (MIC)
Method: as §1

[11] = system: Proteus vulgalis HX-19; assay: MIC, twofold agar dilution; format: cell-based; settings: Gram -; 10^6 cells/ml; 18 hrs, 37° C.; read-out: Minimum inhibitory concentration (MIC)
Method: as §1

[12] = system: Proteus vulgalis OX-19; assay: MIC, twofold agar dilution; format: cell-based; settings: Gram -; 10^6 cells/ml; 18 hrs, 37° C.; read-out: Minimum inhibitory concentration (MIC)
Method: as §1

[13] = system: Pseudomonas aeruginosa ATCC9027; assay: MIC, twofold agar dilution; format: cell-based; settings: Gram -, 10^6 cells/ml, 18 hrs, 37° C., read-out: Minimum inhibitory concentration (MIC)
Method: as §1

[14] = system: Pseudomonas aeruginosa IFO3445; assay: MIC, twofold agar dilution; format: cell-based; settings: Gram -, 10^6 cells/ml, 18 hrs, 37° C., read-out: Minimum inhibitory concentration (MIC)
Method: as §1

[15] = system: Pseudomonas aeruginosa NCTC10490; assay: MIC, twofold agar dilution; format: cell-based; settings: Gram -, 10^6 cells/ml, 18 hrs, 37° C., read-out: Minimum inhibitory concentration (MIC)
Method: as §1

[16] = system: Pseudomonas aeruginosa PAO7; assay: MIC, twofold agar dilution; format: cell-based; settings: Gram -, 10^6 cells/ml, 18 hrs, 37° C., read-out: Minimum inhibitory concentration (MIC)
Method: as §1

[17] = system: Salmonella enteritidis G14; assay: MIC, twofold agar dilution; format: cell-based; settings: Salmonella enterica, Gram -, 10^6 cells/ml, 18 hrs, 37° C., read-out: Minimum inhibitory concentration (MIC)
Method: as §1

[18] = system: Salmonella paratyphi 1015; assay: MIC, twofold agar dilution; format: cell-based; settings: Salmonella enterica, 18 h, read-out: Minimum inhibitory concentration (MIC)
Method: as §1

[19] = system: Salmonella schottmulleri 0006; assay: MIC, twofold agar dilution; format: cell-based; settings: Gram -, 10^6 cells/ml, 18 hrs, 37° C., read-out: Minimum inhibitory concentration (MIC)
Method: as §1

[20] = system: Salmonella typhi 901; assay: MIC, twofold agar dilution; format: cell-based; settings: Salmonella enterica, 18 h, read-out: Minimum inhibitory concentration (MIC)
Method: as §1

[21] = system: Salmonella typhimurium IID 971; assay: MIC, twofold agar dilution; format: cell-based; settings: Salmonella enterica; Gram -; 10^6 cells/ml; 18 hrs, 37° C.; read-out: Minimum inhibitory concentration (MIC)
Method: as §1

[22] = system: Serratia marcescens IAM1184; assay: MIC, twofold agar dilution; format: cell-based; settings: Gram -, 10^6 cells/ml, 18 hrs, 37° C., read-out: Minimum inhibitory concentration (MIC)
Method: as §1

[23] = system: Staphylococcus aureus FAD208PJC-1; assay: MIC, twofold agar dilution; format: cell-based; settings: FAD208PJC1, Gram +, 10^6 cells/ml, 18 hrs, 37° C., read-out: Minimum inhibitory concentration (MIC)
Method: as §1

[24] = system: Staphylococcus aureus MS-353; assay: MIC, twofold agar dilution; format: cell-based; settings: MS353, Gram +, 10^6 cells/ml, 18 hrs, 37° C., read-out: Minimum inhibitory concentration (MIC)
Method: as §1

[25] = system: Staphylococcus aureus Terajima; assay: MIC, twofold agar dilution; format: cell-based; settings: Gram +, 10^6 cells/ml, 18 hrs, 37° C., read-out: Minimum inhibitory concentration (MIC)
Method: as §1

[26] = system: Streptococcus pyogenes Cook; assay: MIC, twofold agar dilution; format: cell-based; settings: Gram +, 10^6 cells/ml, 18 hrs, 37° C., read-out: Minimum inhibitory concentration (MIC)
Method: as §1

[27] = Urinary excretion in rats after oral dosing (bioassay with Escherichia coli NIHJ-JC-2); format: in vivo, SD strain); settings: rat, male SD rats, 20 mg/Kg per os, fasted 24 hr; for concentration at 6 h: urine 0-6 hr, read-out: Drug Concentration in Urine 0-6 (hr); for dose excreted at 24 h: urine 0-24 hr, read-out: Rate of Urinary Excretion 0-24 (hr); for concentration at 24 h: urine 6-24 hr, read-out: Drug Concentration in Urine 6-24 (hr)
Method: Male rats of SD strain, weighing 180-210 g, were used 8 animals at a group. Test compounds suspended in 0.5% carboxymethyl cellulose were administered per os to 24 hr-fasted rats at dose of 20 mg/Kg. Urine was pooled from 0 to 6 hrs. and 6 to 24 hrs, and urinary excretion was measured by bioassay using Escherichia coli NIHJ-JC-2.
The assay method employed was the cup-plate method using
Escherichia coli NIHJ-JC-2. Urine was appropriately diluted with 1/15M phosphate buffer pH7.0, before assay if necessary. Standard calibration lines were made in 1/15M phosphate buffer pH7.0.

[28] = in vivo; settings: mouse, male ddY mice, 10 days
Method: Male mice of ddY strain, 4 weeks old, were used with 10 animals at a group. Test compounds suspended in 0.5% carboxymethyl cellulose were administered per os (p.o.) in mice. In the case of intraveneous (i.v.) administration, test compounds were solved in 0.1N-HCl solution and neutralized with 0.1N-NaOH solution.

[29] = iv, i.v., read-out: LD50 i.v. (95% Confidence Limit)

SMILES | MIC [1] | MIC [2] | MIC [3] | MIC [4] | MIC [5] | MIC [7] | MIC [8] | MIC [9] | MIC [10] | MIC [11] | MIC [12] | MIC [13] | MIC [14] | MIC [15] | MIC [16] | MIC [17] | MIC [18] | MIC [19] | MIC [20] | MIC [21] | other results
CCn1cc(C(=O)O)c(=O)c2cc(F)c(N3CCNC(C)C3)cc21 (centres unmarked) [Example 1, 1-Ethyl-6-fluoro-1,4-dihydro-7-(3-methyl-1-piperazinyl)-4-oxoquinoline-3-carboxylic acid] | 0.1 µg/mL (≈ 0.3 µM) | 0.1 µg/mL (≈ 0.3 µM) | 0.1 µg/mL (≈ 0.3 µM) | 0.1 µg/mL (≈ 0.3 µM) | 0.1 µg/mL (≈ 0.3 µM) | 25 µg/mL (≈ 75 µM) | 0.39 µg/mL (≈ 1.17 µM) | 0.025 µg/mL (≈ 0.075 µM) | 0.1 µg/mL (≈ 0.3 µM) | 0.025 µg/mL (≈ 0.075 µM) | 0.05 µg/mL (≈ 0.15 µM) | 0.1 µg/mL (≈ 0.3 µM) | 0.78 µg/mL (≈ 2.34 µM) | 0.39 µg/mL (≈ 1.17 µM) | 0.78 µg/mL (≈ 2.34 µM) | 0.1 µg/mL (≈ 0.3 µM) | 0.0125 µg/mL (≈ 0.0375 µM) | 0.025 µg/mL (≈ 0.075 µM) | 0.05 µg/mL (≈ 0.15 µM) | 0.1 µg/mL (≈ 0.3 µM) | MIC ([6]; PCI602, Gram -, 10^6 cells/ml, 18 hrs, 37° C.): 0.025 µg/mL (≈ 0.075 µM); MIC [22]: 0.2 µg/mL (≈ 0.6 µM); MIC [23]: 0.2 µg/mL (≈ 0.6 µM); MIC [24]: 0.39 µg/mL (≈ 1.17 µM); MIC [25]: 0.39 µg/mL (≈ 1.17 µM); MIC [26]: 3.13 µg/mL (≈ 9.39 µM); concentration at 6 h [27]: 514 µg/mL; dose excreted at 24 h [27]: 30%; concentration at 24 h [27]: 28 µg/mL; LD50 at 240 h [28, 29]: 348 mg/kg; LD50 at 240 h ([28]; po, p.o., read-out: LD50 p.o.): > 4000 mg/kg
CCn1cc(C(=O)O)c(=O)c2cc(F)c(N3CCNC(C)C3)c(F)c21 (centres unmarked) [Example 4, 1-Ethyl-6,8-difluoro-1,4-dihydro-7-(3-methyl-1-piperazinyl)-4-oxoquinoline-3-carboxylic acid] | 0.1 µg/mL (≈ 0.285 µM) | 0.1 µg/mL (≈ 0.285 µM) | 0.1 µg/mL (≈ 0.285 µM) | 0.05 µg/mL (≈ 0.142 µM) | 0.05 µg/mL (≈ 0.142 µM) | 6.25 µg/mL (≈ 17.8 µM) | 0.2 µg/mL (≈ 0.569 µM) | 0.025 µg/mL (≈ 0.0712 µM) | 0.05 µg/mL (≈ 0.142 µM) | 0.025 µg/mL (≈ 0.0712 µM) | 0.05 µg/mL (≈ 0.142 µM) | 0.05 µg/mL (≈ 0.142 µM) | 0.78 µg/mL (≈ 2.22 µM) | 0.78 µg/mL (≈ 2.22 µM) | 1.56 µg/mL (≈ 4.44 µM) | 0.05 µg/mL (≈ 0.142 µM) | 0.025 µg/mL (≈ 0.0712 µM) | 0.025 µg/mL (≈ 0.0712 µM) | 0.0125 µg/mL (≈ 0.0356 µM) | 0.05 µg/mL (≈ 0.142 µM) | MIC ([6]; PCI602, 18 h): 0.0125 µg/mL (≈ 0.0356 µM); MIC [22]: 0.1 µg/mL (≈ 0.285 µM); MIC [23]: 0.38 µg/mL (≈ 1.08 µM); MIC [24]: 0.78 µg/mL (≈ 2.22 µM); MIC [25]: 0.78 µg/mL (≈ 2.22 µM); MIC [26]: 3.13 µg/mL (≈ 8.91 µM); concentration at 6 h [27]: 659 µg/mL; dose excreted at 24 h [27]: 75%; concentration at 24 h [27]: 87 µg/mL; LD50 at 240 h [28, 29]: 246 mg/kg; LD50 at 240 h ([28]; po, p.o., read-out: LD50 p.o.): > 4000 mg/kg
